Results on one substance are retold here after EP1774974A1, “Use of hyperforin or St. John's Wort in the treatment and prevention of metabolic syndrome” (Roots, Ivar, priority 2005, dated 2007).

Data set [1] relates to HepG2 cells. The data set can be described thus: Affymetrix HG U95Av2 microarray gene expression analysis. The note with it: 1 µM hyperforin, 24 h. The data set is classed as cell-based, human. As for the experimental part:
(§1) HepG2 cells (human hepatocellular carcinoma, German Collection of Microorganisms and Cell Cultures, DSMZ, Braunschweig, Germany) were grown in Dulbecco's Modified Eagle Medium containing 1 g/l D-glucose and 5% fetal bovine serum with 5% CO2 at 37°C. Cells were seeded in 6-well dishes and grown to confluence. Content of 1 Esbericum™ capsule (total hypericin […], Schaper & Bruemmer, Salzgitter, Germany) was extracted with 1 ml ethanol. Cells were treated with either this extract (final concentration 0.1% (v/v)), or 1 µM hyperforin (Calbiochem, Schwalbach, Germany), or 0.1 % ethanol (controls) for 24 h. Three independent experiments were performed.
(§2) Cells were washed twice with phosphate buffered saline, harvested in lysis buffer (Qiagen, Hilden, Germany) with a rubber-policeman and homogenised by centrifugation through a Qiashredder (Qiagen, Hilden, Germany). Preparation of total RNA was performed using a Qiagen RNeasy Mini Kit according to the manufacturer's instructions. RNA concentration was determined photometrically (Uvicon photometer, Kontron). RNA was either used immediately for cDNA synthesis or stored at -80°C.
Expression analysis was performed with Affymetrix HG U95Av2 microarray (Affymetrix, Santa Clara, CA). Synthesis of biotin-labelled cRNA and hybridisation were carried out following the Affymetrix protocol. Results were exported to Excei for analysis.

Data set [2] has as its system HepG2 cells. The data set can be described thus: Real-time RT-PCR gene expression analysis. The data set is classed as cell-based, human. The following applies: 1 µM hyperforin, 24 h, vs. control, geometric mean of three experiments. As for the experimental part: as §1, §2
5 µg RNA was reverse transcribed in a total volume of 20 µl containing 200 U SuperScript™ II RT and 1x reaction buffer (Invitrogen, Karlsruhe, Germany), 500 ng pd(T)12-18 (Amersham Pharmacia Biotech, Freiburg, Germany) and 125 pmol/µl of each dNTP at 42°C for 1 h. Real-time PCR was performed with QuantiTect™ SYBR® Green PCR Kit (Qiagen, Hilden, Germany) according to the manufacturer's instructions. The reaction was carried out in a LightCycler (Roche, Mannheim, Germany), version 5.32, and analysed using the Second Derivative Maximum method.
On the technique in general: In qPCR the cycle at which signal appears reflects the starting amount.

Where [3] appears, read: vs. control, geometric mean of three experiments.

Take Hyperforin: in data set [1], the “differentially regulated sequences that were upregulated” value came to 120 sequences and the “sequences identified as differentially regulated (p<0.05)” value turned out to be 201 sequences. Further, in data set [1] (setting [3]), the “Fold change of ALDOA transcript, Array” value amounted to 1.41; the “Fold change of ENO2 transcript, Array” value was determined as 2.75; the “Fold change of FDPS transcript, Array” value amounted to 0.53; the “Fold change of IGFBP3 transcript, Array” value worked out at 8.79. Besides, in data set [1] (setting [3]), the “Fold change of LDHA transcript, Array” value came out at 1.36; the “Fold change of LDHB transcript, Array” value was 1.42; the “Fold change of MVD transcript, Array” value is 0.26; the “Fold change of PCK2 transcript, Array” value is recorded as 0.43. Moreover, in data set [1] (setting [3]), the “Fold change of PFKFB3 transcript, Array” value was 1.83; the “Fold change of PGK1 transcript, Array” value worked out at 1.50; the “Fold change of PKM2 transcript, Array” value is given as 1.40; the “Fold change of SLC2A1 transcript, Array” value was determined as 1.74. Also, in data set [1] (setting [3]), the “Fold change of SLC2A3 transcript, Array” value is listed as 3.57; the “Fold change of SLC25A8 / UCP2 transcript, Array” value stood at 0.54; the “Fold change of TM7SF2 transcript, Array” value is 0.52. Moreover, in data set [2], the “Fold change of ALDOA transcript, RT-PCR” value stood at 1.42; the “Fold change of FDPS transcript, RT-PCR” value is listed as 0.49; the “Fold change of IGFBP3 transcript, RT-PCR” value is listed as 8.29; the “Fold change of MVD transcript, RT-PCR” value came out at 0.56. Further, in data set [2], the “Fold change of PCK2 transcript, RT-PCR” value is reported as 0.49; the “Fold change of SLC2A1 transcript, RT-PCR” value came out at 1.90; the “Fold change of SLC2A3 transcript, RT-PCR” value turned out to be 2.84.
